Experiments:
PI 3-kinase alpha [1] = molecular target: T1, PI 3-kinase alpha (Homo sapiens, UniProt P42336); test: Cellular assay H1, p-Akt (S473) in Rat-1 cells, Surefire format; type: cell-based; conditions: non-asterisked data: version H1 (Surefire format), Rat-1 cells; read-out: Assay H PI3Kα IC50
Target sequence in this assay (P42336 whole entry): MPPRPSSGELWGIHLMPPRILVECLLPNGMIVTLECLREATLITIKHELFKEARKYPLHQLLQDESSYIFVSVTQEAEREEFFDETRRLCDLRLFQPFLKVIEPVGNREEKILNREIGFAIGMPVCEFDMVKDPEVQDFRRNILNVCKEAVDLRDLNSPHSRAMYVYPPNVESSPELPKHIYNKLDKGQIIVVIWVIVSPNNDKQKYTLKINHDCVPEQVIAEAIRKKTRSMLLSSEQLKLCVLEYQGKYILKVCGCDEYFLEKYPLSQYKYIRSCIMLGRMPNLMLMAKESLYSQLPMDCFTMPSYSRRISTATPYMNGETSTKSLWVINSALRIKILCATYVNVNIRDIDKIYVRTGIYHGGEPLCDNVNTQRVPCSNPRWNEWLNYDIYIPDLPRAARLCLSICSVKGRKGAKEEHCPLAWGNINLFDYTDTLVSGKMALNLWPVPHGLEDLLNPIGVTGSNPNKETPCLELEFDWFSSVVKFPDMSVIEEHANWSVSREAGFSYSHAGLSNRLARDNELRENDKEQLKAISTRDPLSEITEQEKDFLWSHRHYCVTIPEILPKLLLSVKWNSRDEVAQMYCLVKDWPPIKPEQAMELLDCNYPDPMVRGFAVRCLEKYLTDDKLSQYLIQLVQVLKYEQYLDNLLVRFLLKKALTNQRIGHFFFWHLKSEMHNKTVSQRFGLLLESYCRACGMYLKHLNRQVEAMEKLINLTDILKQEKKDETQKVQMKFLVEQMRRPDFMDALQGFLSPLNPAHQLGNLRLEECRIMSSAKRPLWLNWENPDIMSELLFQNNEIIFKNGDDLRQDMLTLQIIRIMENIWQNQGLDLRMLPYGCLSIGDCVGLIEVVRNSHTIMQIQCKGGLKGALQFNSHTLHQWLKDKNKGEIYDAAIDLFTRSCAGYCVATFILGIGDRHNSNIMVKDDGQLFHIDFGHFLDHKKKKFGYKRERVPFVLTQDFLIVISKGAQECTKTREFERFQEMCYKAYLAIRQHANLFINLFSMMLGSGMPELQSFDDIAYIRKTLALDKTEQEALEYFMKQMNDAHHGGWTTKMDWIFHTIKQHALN
Target sequence in this assay (Q63787 whole entry partner): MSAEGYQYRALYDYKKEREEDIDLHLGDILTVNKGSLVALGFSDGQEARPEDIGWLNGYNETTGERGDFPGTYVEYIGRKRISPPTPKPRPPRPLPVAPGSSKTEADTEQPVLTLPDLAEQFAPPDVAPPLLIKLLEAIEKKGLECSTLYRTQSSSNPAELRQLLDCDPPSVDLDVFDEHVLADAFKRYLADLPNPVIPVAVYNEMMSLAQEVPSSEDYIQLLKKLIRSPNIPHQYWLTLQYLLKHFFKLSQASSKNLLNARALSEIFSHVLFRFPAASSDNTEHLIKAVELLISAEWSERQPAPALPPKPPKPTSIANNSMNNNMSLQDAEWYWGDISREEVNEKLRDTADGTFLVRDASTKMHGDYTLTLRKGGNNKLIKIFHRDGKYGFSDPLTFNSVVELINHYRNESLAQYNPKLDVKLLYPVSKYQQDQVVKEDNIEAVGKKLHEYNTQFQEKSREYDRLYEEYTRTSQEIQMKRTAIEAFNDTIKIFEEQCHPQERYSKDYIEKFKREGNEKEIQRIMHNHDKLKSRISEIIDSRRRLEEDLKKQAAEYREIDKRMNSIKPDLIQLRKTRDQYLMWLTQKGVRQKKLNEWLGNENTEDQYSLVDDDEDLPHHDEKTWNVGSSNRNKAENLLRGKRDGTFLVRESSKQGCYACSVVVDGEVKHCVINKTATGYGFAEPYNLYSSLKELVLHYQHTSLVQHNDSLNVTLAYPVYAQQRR

Vps34 = Vps34 (Homo sapiens, UniProt Q8NEB9); test: Kinase Glo Luminescent Kinase Assay (Kglo), assay C; type: biochemical; conditions: read-out: Assay C VPS34 IC50
PI 3-kinase gamma [2] = molecular target: T2, PI 3-kinase gamma (Homo sapiens, UniProt P48736); test: TR-FRET Adapta assay, assay E; type: biochemical; conditions: read-out: Assay E PI3Kγ IC50
PI 3-kinase gamma [3] = molecular target: T2, PI 3-kinase gamma; test: Cellular U937 AKT assay K1 (MSD); type: cell-based; conditions: U937 cells, K1 format; read-out: Assay K1 PI3Kγ IC50
PI 3-kinase delta [4] = molecular target: T3, PI 3-kinase delta (Homo sapiens, UniProt O00329); test: Cellular assay J1, p-Akt (S473) in Rat-1 cells, Surefire format; type: cell-based; conditions: non-asterisked data: version J1 (Surefire format), Rat-1 cells; read-out: Assay J PI3Kδ IC50
Target sequence in this assay (O00329 whole entry): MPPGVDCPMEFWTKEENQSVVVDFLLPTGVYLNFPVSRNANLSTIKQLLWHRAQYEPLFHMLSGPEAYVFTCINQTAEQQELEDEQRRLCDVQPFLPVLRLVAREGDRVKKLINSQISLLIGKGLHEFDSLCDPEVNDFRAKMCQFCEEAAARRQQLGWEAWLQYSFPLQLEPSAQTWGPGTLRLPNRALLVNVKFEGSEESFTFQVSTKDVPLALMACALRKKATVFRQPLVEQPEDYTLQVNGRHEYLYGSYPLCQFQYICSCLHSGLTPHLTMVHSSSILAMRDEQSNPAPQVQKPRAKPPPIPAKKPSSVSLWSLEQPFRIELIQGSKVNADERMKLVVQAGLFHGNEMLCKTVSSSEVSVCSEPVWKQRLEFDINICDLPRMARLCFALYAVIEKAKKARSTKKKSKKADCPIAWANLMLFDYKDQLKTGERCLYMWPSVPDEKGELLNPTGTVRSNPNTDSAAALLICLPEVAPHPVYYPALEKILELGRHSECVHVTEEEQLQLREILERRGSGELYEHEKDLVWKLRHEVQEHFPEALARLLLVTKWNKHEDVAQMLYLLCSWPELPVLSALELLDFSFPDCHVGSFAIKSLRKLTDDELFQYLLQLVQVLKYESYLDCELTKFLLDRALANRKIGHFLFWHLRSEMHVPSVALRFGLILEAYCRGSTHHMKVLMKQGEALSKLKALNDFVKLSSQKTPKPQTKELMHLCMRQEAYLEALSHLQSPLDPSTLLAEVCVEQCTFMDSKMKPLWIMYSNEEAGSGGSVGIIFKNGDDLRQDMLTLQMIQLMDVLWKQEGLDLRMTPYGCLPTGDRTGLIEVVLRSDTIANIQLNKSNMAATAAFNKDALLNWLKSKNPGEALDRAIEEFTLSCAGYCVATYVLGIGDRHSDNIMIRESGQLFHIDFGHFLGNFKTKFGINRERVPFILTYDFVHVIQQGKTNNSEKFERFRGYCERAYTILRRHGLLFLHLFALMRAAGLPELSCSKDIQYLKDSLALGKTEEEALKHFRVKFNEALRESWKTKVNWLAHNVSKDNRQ
Target sequence in this assay (Q63787 whole entry partner): as the sequence (Q63787 whole entry partner) above

PI 4-kinase beta = PI 4-kinase beta (Homo sapiens, UniProt Q9UBF8); test: Kinase Glo Luminescent Kinase Assay (Kglo), assay D; type: biochemical; conditions: read-out: Assay D PI4Kβ IC50
Sequence of PI 4-kinase beta (Q9UBF8 whole entry): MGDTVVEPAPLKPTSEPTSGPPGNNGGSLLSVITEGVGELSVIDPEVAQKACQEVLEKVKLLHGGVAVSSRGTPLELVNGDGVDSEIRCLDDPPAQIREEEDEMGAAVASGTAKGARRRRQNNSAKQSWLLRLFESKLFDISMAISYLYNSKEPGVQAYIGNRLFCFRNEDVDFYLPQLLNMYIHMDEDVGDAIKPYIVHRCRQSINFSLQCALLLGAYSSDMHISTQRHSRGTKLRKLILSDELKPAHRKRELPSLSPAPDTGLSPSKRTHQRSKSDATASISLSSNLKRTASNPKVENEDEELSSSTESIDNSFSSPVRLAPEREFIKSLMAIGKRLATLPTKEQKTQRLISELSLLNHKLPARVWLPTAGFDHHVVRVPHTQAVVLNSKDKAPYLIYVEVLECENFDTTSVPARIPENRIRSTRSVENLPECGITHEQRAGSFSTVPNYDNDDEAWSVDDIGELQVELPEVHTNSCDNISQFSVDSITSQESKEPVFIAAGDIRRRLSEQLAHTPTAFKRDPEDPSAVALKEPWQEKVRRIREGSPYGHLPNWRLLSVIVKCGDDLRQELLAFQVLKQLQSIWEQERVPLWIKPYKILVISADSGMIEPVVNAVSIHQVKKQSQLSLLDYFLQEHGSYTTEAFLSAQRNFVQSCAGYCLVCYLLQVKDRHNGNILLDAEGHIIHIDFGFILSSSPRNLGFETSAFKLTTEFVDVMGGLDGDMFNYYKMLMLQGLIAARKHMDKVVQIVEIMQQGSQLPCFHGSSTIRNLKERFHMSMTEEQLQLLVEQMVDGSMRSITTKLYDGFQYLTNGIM

PI 3-kinase beta [5] = molecular target: T4, PI 3-kinase beta (Homo sapiens, UniProt P42338); test: Cellular assay I1, p-Akt (S473) in Rat-1 cells, Surefire format; type: cell-based; conditions: non-asterisked data: version I1 (Surefire format), Rat-1 cells; read-out: Assay I PI3Kβ IC50
PI 3-kinase alpha [6] = molecular target: T1, PI 3-kinase alpha; test: Kinase Glo Luminescent Kinase Assay (Kglo), assay A; type: biochemical; conditions: read-out: Assay A PI3Kα IC50
Target sequence in this assay (P42336 whole entry): as the sequence (P42336 whole entry) above

[7] = Microsomal clearance assay (M); conditions: intrinsic clearance in rat liver microsomes
Protocol: The experiments were performed in 96-well glass plates at 37° C. on an automated Tecan EVO platform. Test compounds at a concentration of 10 mM in pure DMSO were diluted 1:1000 in water to 10 μM. […] Reactions were initiated by the addition of 150 μL of a cofactor solution containing 2 mM NADPH.

mTOR = mTOR (Homo sapiens, UniProt P42345); test: Lanthascreen kinase binding assay, assay G; conditions: read-out: Assay G mTOR IC50
Protocol: Lanthascreen™ Kinase Binding Assay for mTOR (G)
Binding of an inhibitor to the kinase competes for binding with the tracer, resulting in a loss of FRET.
50 nL of compound dilutions were dispensed onto white 384-well small volume polystyrene plate.

PI 3-kinase beta [8] = molecular target: T4, PI 3-kinase beta; test: Kinase Glo Luminescent Kinase Assay (Kglo), assay B; type: biochemical; conditions: read-out: Assay B PI3Kβ IC50
Target sequence in this assay (P42338 whole entry): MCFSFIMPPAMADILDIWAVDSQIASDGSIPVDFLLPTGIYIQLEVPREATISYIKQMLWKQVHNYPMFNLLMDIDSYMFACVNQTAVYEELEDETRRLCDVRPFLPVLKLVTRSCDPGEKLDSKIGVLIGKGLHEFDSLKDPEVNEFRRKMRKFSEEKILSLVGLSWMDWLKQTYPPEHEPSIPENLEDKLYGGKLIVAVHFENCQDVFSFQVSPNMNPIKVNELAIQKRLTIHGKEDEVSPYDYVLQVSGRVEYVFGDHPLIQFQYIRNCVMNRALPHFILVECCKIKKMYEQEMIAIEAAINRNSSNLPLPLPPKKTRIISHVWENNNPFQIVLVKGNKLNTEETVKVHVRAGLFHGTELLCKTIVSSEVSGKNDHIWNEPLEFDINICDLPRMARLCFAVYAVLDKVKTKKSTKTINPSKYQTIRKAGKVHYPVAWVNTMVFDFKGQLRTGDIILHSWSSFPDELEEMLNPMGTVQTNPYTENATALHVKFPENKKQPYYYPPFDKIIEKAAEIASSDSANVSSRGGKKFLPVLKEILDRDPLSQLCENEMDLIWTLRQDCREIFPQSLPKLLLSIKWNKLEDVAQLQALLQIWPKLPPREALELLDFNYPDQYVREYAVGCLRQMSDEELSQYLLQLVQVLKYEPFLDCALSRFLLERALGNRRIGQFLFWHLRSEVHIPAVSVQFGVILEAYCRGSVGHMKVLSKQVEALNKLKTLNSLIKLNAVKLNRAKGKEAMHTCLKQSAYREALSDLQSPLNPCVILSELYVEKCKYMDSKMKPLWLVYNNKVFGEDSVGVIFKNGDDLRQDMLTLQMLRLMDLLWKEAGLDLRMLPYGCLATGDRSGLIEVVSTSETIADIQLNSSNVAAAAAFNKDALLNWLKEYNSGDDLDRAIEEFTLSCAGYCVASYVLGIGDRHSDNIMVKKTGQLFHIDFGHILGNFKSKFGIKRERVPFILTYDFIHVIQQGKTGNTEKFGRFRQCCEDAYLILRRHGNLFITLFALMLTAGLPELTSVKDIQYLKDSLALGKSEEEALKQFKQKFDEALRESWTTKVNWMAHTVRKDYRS
Target sequence in this assay (P27986 461-568 partner): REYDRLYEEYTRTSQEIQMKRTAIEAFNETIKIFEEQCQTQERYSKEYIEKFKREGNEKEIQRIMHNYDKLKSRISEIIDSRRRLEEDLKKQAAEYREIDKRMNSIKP

PI 3-kinase delta [9] = molecular target: T3, PI 3-kinase delta; test: TR-FRET Adapta assay, assay F; conditions: read-out: Assay F PI3Kδ IC50
Target sequence in this assay (O00329 whole entry): as the sequence (O00329 whole entry) above
Target sequence in this assay (P27986 461-568 partner): as the sequence (P27986 461-568 partner) above

[10] = test system: IL-8-induced neutrophil shape change in human whole blood; test: Whole blood neutrophil shape change assay (L); type: cell-based; conditions: Homo sapiens, Neutrophil, IL-8, human whole blood, read-out: Assay L WBSC IC50

| IC50 (PI 3-kinase alpha [1]) [µM] | IC50 (Vps34) [µM] | IC50 (PI 3-kinase gamma [2]) [nM] | IC50 (PI 3-kinase gamma [3]) [nM] | IC50 (PI 3-kinase delta [4]) [µM] | IC50 (PI 4-kinase beta) [µM] | IC50 (PI 3-kinase beta [5]) [µM] | IC50 (PI 3-kinase alpha [6]) [nM] | Assay M RLM CI(int) [7] [µL/min/mg] | IC50 (mTOR) [µM] | IC50 (PI 3-kinase beta [8]) [µM] | IC50 (PI 3-kinase delta [9]) [nM] | IC50 [10] [nM] | Compound |
| --- | --- | --- | --- | --- | --- | --- | --- | --- | --- | --- | --- | --- | --- |
| 0.85 | > 10 | 67 | 103 | 1.05 | 4.87 | 1.71 | 190 | 192 | 7.95 | 1.55 | 450 | – | Cc1ccc(S(=O)(=O)NCCC(F)(F)F)cc1-c1cnc(N)c(-n2cncn2)n1 [Example 127.31] |
| 6.17 | 7.15 | 42 | 68 | 3.95 | > 9.1 | 6.6 | 370 | 55 | > 9.1 | 4.19 | 490 | – | Cc1ccc(S(=O)(=O)NCCC(O)C(F)(F)F)cc1-c1cnc(N)c(-c2cnn(C)c2)n1 (stereo not drawn) [Example 51, 3-(5-Amino-6-(1-methyl-1H-pyrazol-4-yl)pyrazin-2-yl)-4-methyl-N-(4,4,4-trifluoro-3-hydroxybutyl)benzenesulfonamide] |
| – | > 10 | 45 | – | – | 5 | – | 330 | – | 8.7 | 0.81 | 1100 | 1720 | Cc1ccc(S(=O)(=O)NCC2(O)CCC2)cc1-c1cnc(N)c(-n2cncn2)n1 [Example 127.16] |
| 6.57 | > 9.1 | 12 | 34 | 1.03 | 6.3 | 2.21 | 90 | 167 | 4.6 | 3.5 | 30 | – | Cc1ccc(S(=O)(=O)NCCC(C)(C)O)cc1-c1cnc(N)c(-c2cnn(Cc3cccnc3)c2)n1 [Example 119.38] |
| 0.49 | > 9.1 | 44 | 3640 | 0.87 | 7.46 | 1.77 | 90 | 81 | 3.7 | 7.49 | 130 | – | COc1cc(-c2nc(-c3cc(S(=O)(=O)NCCC(C)(C)O)ccc3C)cnc2N)ccn1 [Example 119.3] |
| > 10 | > 10 | 25 | 91 | 6.49 | 6 | 3.2 | 420 | 73 | > 10 | 3.25 | 30 | – | Cc1ccc(S(=O)(=O)NCCC(C)(C)O)cc1-c1cnc(N)c(-c2cnn(CCN3CCOCC3)c2)n1 [Example 119.41] |
| 4.9 | > 9.1 | 82 | 575 | 4.85 | 8 | 1.66 | 750 | 118 | > 9.1 | > 9.1 | 550 | – | Cc1ccc(S(=O)(=O)NCCC(C)(C)O)cc1-c1cnc(N)c(-c2cccnc2)n1 [Example 119.5] |
| – | > 10 | 60 | – | – | 5.9 | – | 1200 | – | – | 6.2 | 3200 | 2490 | Cc1ccc(S(=O)(=O)N[C@H](C#N)CO)cc1-c1cnc(N)c(-n2cncn2)n1 [Example 127.48] |
| 2.45 | > 9.1 | 98 | > 10000 | 3.26 | 4.14 | 6.75 | 580 | 98 | > 9.1 | > 9.1 | 450 | – | CCOc1ccc(-c2nc(-c3cc(S(=O)(=O)NCCC(C)(C)O)ccc3C)cnc2N)cn1 [Example 119.13] |
| 3.37 | > 9.1 | 64 | 203 | 3.52 | 4.47 | > 10 | 180 | 48 | 4.19 | 3.71 | 480 | – | Cc1cc(-c2nc(-c3cc(S(=O)(=O)N[C@H]4CC[C@@H](O)CC4)ccc3C)cnc2N)ccn1 [Example 76, 3-(5-Amino-6-(2-methylpyridin-4-yl)pyrazin-2-yl)-N-((1s,4s)-4-hydroxycyclohexyl)-4-methylbenzenesulfonamide] |
| 4.92 | > 9.1 | 64 | 528 | 5.63 | > 9.1 | > 10 | 690 | 97 | > 9.1 | 8.11 | 400 | – | Cc1cc(-c2nc(-c3cc(S(=O)(=O)NCC4CCOC4)ccc3C)cnc2N)ccn1 (stereo not drawn) [Example 129.18, 3-(5-amino-6-(2-methylpyridin-4-yl)pyrazin-2-yl)-4-methyl-N-((tetrahydrofuran-3-yl)methyl)benzenesulfonamide] |
| 2.31 | > 9.1 | 28 | 197 | 2.12 | 8.1 | 4.75 | 1200 | 35 | > 9.1 | > 9.1 | 300 | – | Cc1cc(F)c(S(=O)(=O)NCCC(C)(C)O)cc1-c1cnc(N)c(-n2cncn2)n1 [Example 116, 5-(5-Amino-6-(1H-1,2,4-triazol-1-yl)pyrazin-2-yl)-2-fluoro-N-(3-hydroxy-3-methylbutyl)-4-methylbenzenesulfonamide] |
| 1.54 | > 9.1 | 40 | 93 | 1.3 | 3.63 | 3.08 | 110 | 24 | 8.35 | 4.57 | 220 | – | Cc1ccc(S(=O)(=O)N[C@H]2CC[C@H](O)CC2)cc1-c1cnc(N)c(-c2ccnc(F)c2)n1 [Example 60, Trans-3-(5-Amino-6-(2-fluoropyridin-4-yl)pyrazin-2-yl)-N-(-4-hydroxycyclohexyl)-4-methylbenzenesulfonamide] |
| 8.97 | > 9.1 | 1820 | 479 | 8.18 | > 9.1 | > 10 | 5470 | 56 | > 9.1 | > 9.1 | 5810 | – | Cc1ccc(S(=O)(=O)NCCC(C)(C)O)cc1-c1cnc(N)c(-n2ccnc2)n1 [Example 61, 3-(5-Amino-6-(1H-imidazol-1-yl)pyrazin-2-yl)-N-(3-hydroxy-3-methylbutyl)-4-methylbenzenesulfonamide] |
| 2.5 | > 9.1 | 56 | 354 | 1.94 | > 9.1 | 3.72 | 350 | 104 | > 9.1 | 5.5 | 420 | – | Cc1cc(-c2nc(-c3cc(S(=O)(=O)NCC4CCCO4)ccc3C)cnc2N)ccn1 (stereo not drawn) [Example 129.17, 3-(5-amino-6-(2-methylpyridin-4-yl)pyrazin-2-yl)-4-methyl-N-((tetrahydrofuran-2-yl)methyl)benzenesulfonamide] |

Source: US10004732B2 (Novartis AG, priority 2014, dated 2018)
